From ChEMBL document CHEMBL5042483, “Discovery and Mechanism of SARS-CoV-2 Main Protease Inhibitors” (J Med Chem, 2022)
Calls of active or inactive are those of the source. The calls are words filed in the database; no cut-off is given here.

Key:
SARS-CoV-2 [1] = assay: (§1) Antiviral activity against SARS-CoV-2 USA_WA1/2020 infected in human iPSC derived lung organoids assessed as reduction in viral RNA in cell supernatant at 5 uM pretreated for 2 hrs with compound followed by viral infection for 2 hrs then followed by washout and replacement with fresh medium and measured after 72 hrs by qRT-PCR analysis relative to control; format: functional, organism-based; details: Severe acute respiratory syndrome coronavirus 2, time 76.0 hrs
SARS-CoV-2 [2] = assay: as §1, with “intracellular fraction” for “cell supernatant”; format: functional, organism-based; details: Severe acute respiratory syndrome coronavirus 2, time 76.0 hrs

SMILES: O=c1c2ccccc2[se]n1-c1cccc(C(F)(F)F)c1
- Activity (SARS-CoV-2 [1]): Active
- Activity (SARS-CoV-2 [2]): Active
